In one experiment the target is Recombinant human MAO-B (Homo sapiens (Human), UniProt P27338). The experiment can be described thus: Inhibition of human recombinant MAO-B. Type of experiment: biochemical. Conditions: benzylamine 100 μM. The protocol: This vector containing human SSAO/VAP-1 residues was transfected into CHO-K1 glycosylation mutant cell line, Lec 8. A clone stably expressing human SSAO/VAP-1 was isolated and cultured in large scale. Active human SSAO/VAP-1 was purified and recovered using immunoaffinity chromatography. This was used as source for SSAO/VAP-1 activity. A high-throughput colorimetric assay was developed using either 96 or 384 well format. Briefly, in a standard 96 well plate assay 50 μL of purified human SSAO/VAP-1 (0.25 μg/mL) in 0.1 M NaPO4 buffer (pH 7.4) was added into each well.
Recombinant human MAO-B, sequence (P27338 whole entry): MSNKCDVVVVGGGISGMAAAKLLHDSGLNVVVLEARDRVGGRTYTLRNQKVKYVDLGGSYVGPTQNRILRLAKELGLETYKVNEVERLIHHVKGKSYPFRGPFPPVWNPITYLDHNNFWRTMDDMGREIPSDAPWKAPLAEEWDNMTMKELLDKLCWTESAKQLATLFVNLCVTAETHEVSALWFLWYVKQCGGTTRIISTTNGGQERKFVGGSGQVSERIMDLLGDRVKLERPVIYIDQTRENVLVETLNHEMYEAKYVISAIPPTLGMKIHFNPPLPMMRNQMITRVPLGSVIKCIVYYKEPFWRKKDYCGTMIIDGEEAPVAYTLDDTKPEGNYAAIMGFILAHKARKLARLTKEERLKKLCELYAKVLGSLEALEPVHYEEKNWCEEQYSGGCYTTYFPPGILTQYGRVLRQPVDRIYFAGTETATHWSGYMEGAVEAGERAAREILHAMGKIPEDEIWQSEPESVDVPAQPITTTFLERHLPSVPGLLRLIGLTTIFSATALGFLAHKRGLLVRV
The specificity of invention compounds was tested by determining their ability to inhibit MAO-B activities in vitro. Recombinant human MAO-B (0.06 mg/mL; Sigma Aldrich) was used as source of MAO-B enzyme activities.

Experiment [1] concerns the target Endogenous SSAO/VAP-1 in rat fat (Rattus norvegicus (Rat), UniProt O08590). The experiment can be described thus: Inhibition of SSAO/VAP-1 in rat fat homogenate. Type of experiment: biochemical. Conditions: benzylamine 30 μM. The protocol:
Abdominal fat from BALB/c mice, Wistar or Sprague Dawley rats, which are tissues enriched with SSAO/VAP-1-were surgically removed. For every gram of animal abdominal fat tissue, 1 mL of 0.1 M NaPO4 buffer (pH 7.4) was added. Tissues were homogenized using IKA Ultra-Turrax T 10 homogenizer for 3 min, homogenate was centrifuged for 15 min at 3000×g. The middle layer (clear supernatant) was removed without disturbing the top layer (high fat content) or the debris on the bottom of the tube. SSAO/VAP-1 activity was determined by checking the fluorescent signal. Km/Vmax values were determined and the fat homogenate was aliquoted and stored at −80 C until assays were performed.

Another experiment addresses Recombinant human DAO (Homo sapiens (Human), UniProt P19801). Description: Inhibition of human recombinant diamine oxidase. Type of experiment: biochemical. Particulars: putrescine 200 μM.
The target of the next experiment is recombinant human VAP-1 (Homo sapiens, UniProt Q16853). The experiment can be described thus: Inhibition of human recombinant SSAO/VAP-1 expressed in HMEC cells (cell lysate).
Experiment [2] concerns LPS-induced neuroinflammation. The experiment can be described thus: Parkinson's disease Model A: systemic exposure to LPS. Type of experiment: in vivo, Long Evans rats. Particulars: 2 mg/kg ip. On the procedure:
Parkinson's disease is a pathological, age-related neurodegenerative disorder, characterized by a specific and progressive degeneration of dopaminergic neurons.
Long Evans rats were dosed intraperitoneal (ip) with 2 mg/kg of Compound 9 or vehicle 1 h before the first (time 0 h) and the third (time 24 h) injections of LPS. At time 0 the animals received a dose of 10 mg/kg of LPS. At time 6 and 24 h the animals were dosed with 3 mg/kg of LPS solution, ip. 30 h after the first LPS injection, the animals received ip injections of lethabarb and were transcardially perfused with 400 ml. PBS at 4° C. followed by 400 ml of 4% paraformaldehyde (PFA). The brains were post fixed overnight in 4% PFA at 4° C. followed by 20% sucrose solution for 24 h. 30 μm sections were collected and stained for immunofluorescence, immunohistochemistry and western blot analysis.

Experiment [3] relates to LPS-induced lung inflammation. The experiment can be described thus: Acute lung inflammation in the LPS driven model. Conditions: 2 mg/kg.
Description: The incision was closed with wound clips and the mice returned to cages.
Six hours after LPS/saline injection, the mice were anesthetized, the wound clips removed, the trachea was cannulated with a 23G blunt needle, and the lungs lavaged eight times with 0.5 ml heparinized saline. The lavage was pooled, gently inverted, and a sample retained for white blood cell (WBC) differential analysis. The remainder of the lavage was centrifuged, the supernatants used for cytokine analysis.

Counter-ions that a name gives are not always drawn.

Recombinant human DAO, sequence (P19801 20-751): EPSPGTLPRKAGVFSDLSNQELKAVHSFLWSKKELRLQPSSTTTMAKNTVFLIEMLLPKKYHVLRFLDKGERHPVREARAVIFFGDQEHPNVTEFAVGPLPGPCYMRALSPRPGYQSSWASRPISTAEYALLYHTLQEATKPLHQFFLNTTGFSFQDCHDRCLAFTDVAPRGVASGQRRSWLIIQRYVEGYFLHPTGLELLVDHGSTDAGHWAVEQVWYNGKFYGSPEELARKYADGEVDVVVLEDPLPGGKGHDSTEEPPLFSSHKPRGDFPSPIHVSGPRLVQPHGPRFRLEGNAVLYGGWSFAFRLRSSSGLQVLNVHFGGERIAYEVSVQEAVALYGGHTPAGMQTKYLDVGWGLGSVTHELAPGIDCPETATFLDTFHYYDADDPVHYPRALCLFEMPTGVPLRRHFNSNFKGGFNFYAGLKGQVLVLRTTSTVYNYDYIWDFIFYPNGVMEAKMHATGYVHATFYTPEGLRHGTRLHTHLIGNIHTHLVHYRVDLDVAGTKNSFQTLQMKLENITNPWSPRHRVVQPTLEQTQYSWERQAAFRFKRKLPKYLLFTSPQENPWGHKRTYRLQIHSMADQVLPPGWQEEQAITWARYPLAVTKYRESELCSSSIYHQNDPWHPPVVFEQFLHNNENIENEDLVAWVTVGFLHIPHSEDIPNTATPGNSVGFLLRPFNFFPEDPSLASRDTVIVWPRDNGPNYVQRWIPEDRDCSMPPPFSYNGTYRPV
Endogenous SSAO/VAP-1 in rat fat, sequence (O08590 whole entry): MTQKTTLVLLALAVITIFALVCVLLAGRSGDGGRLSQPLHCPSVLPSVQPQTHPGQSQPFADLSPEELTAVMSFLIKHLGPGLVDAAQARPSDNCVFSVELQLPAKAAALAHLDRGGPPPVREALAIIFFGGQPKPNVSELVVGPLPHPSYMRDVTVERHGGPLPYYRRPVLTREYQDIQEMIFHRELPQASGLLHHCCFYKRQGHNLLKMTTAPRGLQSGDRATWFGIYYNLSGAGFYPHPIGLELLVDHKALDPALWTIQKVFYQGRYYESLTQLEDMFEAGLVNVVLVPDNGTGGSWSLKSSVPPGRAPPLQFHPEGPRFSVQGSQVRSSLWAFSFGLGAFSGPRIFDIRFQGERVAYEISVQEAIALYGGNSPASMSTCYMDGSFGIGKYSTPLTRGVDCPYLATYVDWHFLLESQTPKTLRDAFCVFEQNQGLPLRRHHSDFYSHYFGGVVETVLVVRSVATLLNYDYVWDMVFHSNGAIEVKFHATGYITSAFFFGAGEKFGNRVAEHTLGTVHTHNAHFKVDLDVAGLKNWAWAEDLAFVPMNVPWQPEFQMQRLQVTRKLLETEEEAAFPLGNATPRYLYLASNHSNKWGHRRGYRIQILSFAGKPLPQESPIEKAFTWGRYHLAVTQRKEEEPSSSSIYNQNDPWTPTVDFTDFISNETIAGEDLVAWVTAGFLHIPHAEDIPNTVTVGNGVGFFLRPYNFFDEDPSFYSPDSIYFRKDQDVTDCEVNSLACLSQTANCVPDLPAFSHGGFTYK
Description for recombinant human VAP-1: A clone stably expressing human SSAO/VAP-1 was selected and was stored in liquid nitrogen until cell lysate was required for colorimetric assay. Briefly, HMEC cell expressing human SSAO/VAP-1 were grown in several 10 cm petri dishes, once the cells reached 100% confluency, cells were harvested and homogenates were prepared. Cells were washed twice with 5 mL of chilled HES buffer (20 mM HEPES, 1 mM EDTA, 250 mM sucrose, pH 7.4). HES buffer containing 1× protease inhibitor (Sigma Aldrich) and added and cells were incubated on ice for 3 min. Buffer was removed and cells were scraped and transferred to a centrifuge tube. Cell lysates were prepared by passing through 23 G needle for, 10 times and followed by 27 G needle for 10 times. Alternatively the cell lysates were prepared by using IKA Ultra-Turrax T 10 homogenizer for 3 min for every 10 mL of cell suspensions. Cells were then spun for 5 min at 300×g. The clear supernatant was transferred to new centrifuge tube and stored at −80° C. until colorimetric assay was performed. Prior to the assay, 0.5 mM pargyline was added in order to inhibit any residue MAO activities. […] Briefly, 50 μL of cell lysate was incubated with test compounds for 30 min at 37° C.

Regarding `NC/C(=C/F)COc1ccc(C(N)=O)cc1` [Compound 2, (Z)-4-(2-(Aminomethyl)-3-fluoroallyloxy)benzamide], the IC50 (usually the concentration that inhibits the measured activity by half) was over 1 µM at Recombinant human MAO-B, under 0.1 µM in experiment [1], under 0.1 µM at Recombinant human DAO and under 0.1 µM on recombinant human VAP-1.
Consider `CN(C)C(=O)c1ccc(OC/C(=C\F)CN)cc1` [Compound 18, (Z)-4-(2-(Aminomethyl)-3-fluoroallyloxy)-N,N-dimethylbenzamide], for which the IC50 at Recombinant human MAO-B was over 0.1 µM; in experiment [1], under 0.1 µM; at Recombinant human DAO it was under 0.1 µM; on recombinant human VAP-1, under 0.1 µM.
Turning to `CC(C)NS(=O)(=O)c1ccc(OC/C(=C/F)CN)cc1` [Compound 32, (E)-4-(2-(Aminomethyl)-3-fluoroallyloxy)-N-isopropylbenzenesulfonamide], the values for the IC50 (at Recombinant human MAO-B; in experiment [1]; on Recombinant human DAO) were over 10 µM, under 0.1 µM and over 10 µM, respectively.
As to `NC/C(=C\F)COc1ccc(C(N)=O)cc1` [Compound 3, (E)-4-(2-(Aminomethyl)-3-fluoroallyloxy)benzamide], the IC50 is over 10 µM at Recombinant human MAO-B, under 0.1 µM in experiment [1], over 1 µM at Recombinant human DAO and under 0.1 µM at recombinant human VAP-1.
For `CN(C)C(=O)c1ccc(SCC(=CF)CN)cc1` [Compound 8, 4-(2-(Aminomethyl)-3-fluoroallylthio)-N,N-dimethylbenzamide], the results for the IC50 at Recombinant human MAO-B and on recombinant human VAP-1 were over 1 µM and under 0.1 µM, respectively.
Turning to `CCN(CC)C(=O)c1ccc(OC/C(=C/F)CN)cc1` [Compound 24, (E)-4-(2-(Aminomethyl)-3-fluoroallyloxy)-N,N-diethylbenzamide], the IC50 on Recombinant human MAO-B was over 1 µM; in experiment [1], under 0.1 µM; at Recombinant human DAO, over 10 µM.
On the same counts, the results for `CCNS(=O)(=O)c1ccc(OC/C(=C\F)CN)cc1` [Compound 31, (Z)-4-(2-(Aminomethyl)-3-fluoroallyloxy)-N-ethylbenzenesulfonamide] are over 1 µM, under 0.1 µM and under 1 µM.
Regarding `CN(C)S(=O)(=O)c1cccc(OC/C(=C\F)CN)c1` [Compound 15, (Z)-3-(2-(Aminomethyl)-3-fluoroallyloxy)-N,N-dimethylbenzenesulfonamide], the IC50 at Recombinant human MAO-B was over 100 µM; in experiment [1], under 0.1 µM.
For the molecule `CC(C)NS(=O)(=O)c1ccc(OC/C(=C\F)CN)cc1` [Compound 33, (Z)-4-(2-(Aminomethyl)-3-fluoroallyloxy)-N-isopropylbenzenesulfonamide], the IC50 at Recombinant human MAO-B was over 10 µM; in experiment [1] it was under 0.1 µM; on Recombinant human DAO, under 1 µM.
For the molecule `CN(C)C(=O)c1ccc(OC/C(=C\F)CN)c(F)c1` [Compound 4, (Z)-4-(2-(Aminomethyl)-3-fluoroallyloxy)-3-fluoro-N,N-dimethylbenzamide], the IC50 on Recombinant human MAO-B is over 0.1 µM; in experiment [1], under 0.1 µM; on Recombinant human DAO, under 1 µM.
As for `CNS(=O)(=O)c1ccc(OC/C(=C\F)CN)cc1` [Compound 29, (Z)-4-(2-(Aminomethyl)-3-fluoroallyloxy)-N-methylbenzenesulfonamide], the results for the IC50 (at Recombinant human MAO-B; in experiment [1]; on Recombinant human DAO) were over 10 µM, under 0.1 µM and over 1 µM, respectively.
On the same counts, the results for `CNS(=O)(=O)c1ccc(OC/C(=C/F)CN)cc1` [Compound 28, (E)-4-(2-(Aminomethyl)-3-fluoroallyloxy)-N-methylbenzenesulfonamide] are over 10 µM, under 0.1 µM and over 10 µM.
The like results for `CN(C)S(=O)(=O)c1ccc(OC/C(=C/F)CN)cc1` [Compound 14, (E)-4-(2-(Aminomethyl)-3-fluoroallyloxy)-N,N-dimethylbenzenesulfonamide] were, in that order, over 10 µM, under 0.1 µM and over 10 µM.
The like results for `CN(C)S(=O)(=O)c1ccc(OC/C(=C\F)CN)cc1` [Compound 10, (Z)-4-(2-(Aminomethyl)-3-fluoroallyloxy)-N,N-dimethylbenzenesulfonamide] were, in that order, over 10 µM, under 0.1 µM and over 1 µM.
For the molecule `CN(C)C(=O)c1ccc(OC/C(=C\F)CN)c(Cl)c1` [Compound 6, (Z)-4-(2-(Aminomethyl)-3-fluoroallyloxy)-3-chloro-N,N-dimethylbenzamide], the values for the IC50 on Recombinant human MAO-B and on Recombinant human DAO were over 1 µM and under 1 µM, respectively.
`Cc1cc(OC/C(=C\F)CN)ccc1C(=O)N(C)C` [Compound 26, (Z)-4-(2-(Aminomethyl)-3-fluoroallyloxy)-N,N,2-trimethylbenzamide]: the IC50 is over 1 µM at Recombinant human MAO-B, under 1 µM at Recombinant human DAO and under 0.1 µM at recombinant human VAP-1.
In the case of `CCNS(=O)(=O)c1ccc(OC/C(=C/F)CN)cc1` [Compound 30, (E)-4-(2-(Aminomethyl)-3-fluoroallyloxy)-N-ethylbenzenesulfonamide], the IC50 was over 10 µM on Recombinant human MAO-B, under 0.1 µM in experiment [1] and over 10 µM on Recombinant human DAO.
`CN(C)C(=O)c1ccc(OC/C(=C/F)CN)cc1` [Compound 13, hydrochloride]: the IC50 at Recombinant human MAO-B was over 0.1 µM; in experiment [1] it was under 0.1 µM; on Recombinant human DAO it was over 1 µM; at recombinant human VAP-1 it was under 0.1 µM.
Regarding `NC/C(=C/F)CCc1ccc(F)cc1` [Mofegiline, reference compound], in experiment [1], half-maximal inhibition (IC50) required 0.006 µM.
For `CN(C)C(=O)c1ccc(OC/C(=C\F)CN)c(Br)c1` [Compound 20, (Z)-4-(2-(Aminomethyl)-3-fluoroallyloxy)-3-bromo-N,N-dimethylbenzamide], the concentration for half-maximal inhibition (IC50) is over 1 µM on Recombinant human MAO-B and under 1 µM at Recombinant human DAO.
`NC/C(=C\F)COc1ccc(S(N)(=O)=O)cc1` [Compound 11, (E)-4-(2-(Aminomethyl)-3-fluoroallyloxy)benzenesulfonamide]: the IC50 is over 10 µM at Recombinant human MAO-B, under 0.1 µM in experiment [1], over 10 µM on Recombinant human DAO and under 0.1 µM on recombinant human VAP-1.
`CNC(=O)c1ccc(OC/C(=C/F)CN)cc1` [Compound 25, (E)-4-(2-(Aminomethyl)-3-fluoroallyloxy)-N-methylbenzamide]: the IC50 was over 1 µM at Recombinant human MAO-B, under 0.1 µM in experiment [1], under 1 µM on Recombinant human DAO and under 0.1 µM on recombinant human VAP-1.
As to `COc1cc(C(=O)N(C)C)ccc1OCC(=CF)CN` [Compound 7, 4-(2-(Aminomethyl)-3-fluoroallyloxy)-3-methoxy-N,N-dimethylbenzamide], the IC50 on Recombinant human MAO-B was over 10 µM; on Recombinant human DAO it was under 1 µM; on recombinant human VAP-1, under 0.1 µM.
For the molecule `NC/C(=C/F)COc1ccc(S(N)(=O)=O)cc1` [Compound 9, (Z)-4-(2-(Aminomethyl)-3-fluoroallyloxy)benzenesulfonamide], the IC50 on Recombinant human MAO-B was over 10 µM; in experiment [1] it was under 0.1 µM; on Recombinant human DAO, under 1 µM; at recombinant human VAP-1, under 0.1 µM. Moreover, the “neutrophil infiltration in the dorso-lateral striatum and hippocampus” value in experiment [2] (30 h after first LPS injection) is “reduced”. In addition, in experiment [2] (dendrites length, surface and volume), the “microglial cell recruitment and activation in the substantia nigra and dorso-lateral striatum” value is “reduction”. The IL-6 levels entry in experiment [3] (lavage supernatant) is reported as “diminution”. Besides, the TNF-α levels entry in experiment [3] (lavage supernatant) is given as “diminution”. Also, the neutrophil infiltration entry in experiment [3] (lung lavage six hours after LPS) was “significant reduction”.

Source of the values: patent publication US9302986B2, “Substituted 3-haloallylamine inhibitors of ASSAO and uses thereof” (Boehringer Ingelheim International GmbH, priority 2012, dated 2016).
